Reference: patent publication US7745450B2, “Pyrazolo[4,3-d]pyrimidines, processes for their preparation and methods for therapy” (Institute of Experimental Botany, priority 2002, dated 2010)

Assays:
[1] = target: MMK1 protein kinase (Vicia faba, UniProt A0AAV1B7B8); experiment: MMK1 protein kinase activity; format: biochemical
Experimental: Protein extraction and purification of pant CDK by binding to p13^suc1-beads or immunopurification with an antibody specific to the cdc2a-MS protein was carried out as described previously (Bögre et al. 1997, Plant Physiol. 113, 1997, 841-852). The MMK1 protein kinase was purified with a specific antibody from Vicia faba extracts as described by Bögre et al. 1997a, Plant Cell 9, 75-83). Protein kinase activity was measures as described above in Example 20. The quantification of radioactivity incorporated into histone H1 or myelin basic protein was undertaken using phosphoimager (FIG. 2).

[2] = tested on: CEM (human lymphoblastoid leukemia); experiment: In vitro cytotoxic activity, Calcein AM; format: cell-based; conditions: Homo sapiens, 72 h, three days
Experimental: We have been using the following cell lines: HELA (human cervical carcinoma), MCF7 (human breast adenocarcinoma), NIH 3T3 (mouse fibroblasts), HOS (human osteogenic sarcoma), HL 60 (human promyelocytic leukemia), G 361 (human malignant melanoma), K562 (human erythroleukemia), CEM (human lymphoblastoid leukemia). Tested drugs were added to the cell cultures in six different concentration and kept at 37° C. and 5% CO2 for three days. All cell lines were grown in DMEM medium (Gibco BRL) supplemented with 10% (v/v) fetal bovine serum and L-glutamine and maintained at 37° C. in a humidified atmosphere with 5% CO2. 10^4 cells were seeded into each well of 96 well plate, allowed to stabilize for at least 2 h and then tested compounds were added at various concentrations ranging from 200 to 0.2 μM in triplicates. Three days after drug addition Calcein AM solution (Molecular Probes) was added and let to enter the cells for 1 hour. Fluorescence of viable cells was quantified employing Fluoroskan Ascent (Microsystems).

[3] = tested on: normal human lymphocytes; experiment: Immunosuppressive activity, 3H-thymidine incorporation in concanavalin A activated lymphocytes; format: cell-based; conditions: Lymphocyte, 72 hours, [3H]-TdR, read-out: Human lymphocytes ED50
Experimental: Human heparinized peripheral blood was obtained from healthy volunteers by cubital vein punction. The blood was diluted in PBS (1:3) and mononuclear cells were separated by centrifugation in Ficoll-Hypaque density gradient (Pharmacia, 1.077 g/ml) at 2200 rpm for 30 minutes. Following centrifugation, lymphocytes were washed in PBS and resuspended in cell culture medium (RMPI 1640, 2 mM glutamine, 100 U/ml penicillin, 100 μg/ml streptomycin, 10% fetal calf serum and sodium bicarbonate).
The cells were diluted at target density of 1.100.000 cells/ml were added by pipette (180 μl) into 96/well microtiter plates. Four-fold dilutions of the intended test concentration were added at time zero in 20 μl aliquots to the microtiter plate wells. Usually, test compound was evaluated at six 4-fold dilutions. In routine testing, the highest well concentration was 266.7 μM. All drug concentrations were examined in duplicates. All wells with exception of unstimulated controls were activated with 50 μl of concanavalin A (25 μg/ml). Incubations of cells with test compounds lasted for 72 hours at 37° C., in 5% CO2 atmosphere and 100% humidity. At the end of incubation period, the cells were assayed by using the [^3H]-TdR:
Cell cultures were incubated with 0.5 μCi (20 μl of stock solution […]) per well for 6 hours at 37° C. and 5% CO2. The automated cell harvester was used to lyse cells in water and adsorb the DNA onto glass-fiber filters in the format of microtiter plate. The DNA incorporated [^3H]-TdR was retained on the filter while unincorporated material passes through. The filters were dried at room temperature overnight, sealed into a sample bag with 10-12 ml of scintillant. The amount of [^3H]-TdR present in each filter (in cpm) was determined by scintillation counting in a Betaplate liquid scintillation counter. The effective dose of immunosuppressant (ED) was calculated using the following equation: ED=(CCPMdrug exposed well/mean CCPMcontrol wells)×100%.

[4] = tested on: B16; experiment: In vitro cytotoxic activity, Calcein AM; format: cell-based; conditions: Mus musculus, B16, 72 h, three days

Sequence of MMK1 protein kinase (A0AAV1B7B8 1-394): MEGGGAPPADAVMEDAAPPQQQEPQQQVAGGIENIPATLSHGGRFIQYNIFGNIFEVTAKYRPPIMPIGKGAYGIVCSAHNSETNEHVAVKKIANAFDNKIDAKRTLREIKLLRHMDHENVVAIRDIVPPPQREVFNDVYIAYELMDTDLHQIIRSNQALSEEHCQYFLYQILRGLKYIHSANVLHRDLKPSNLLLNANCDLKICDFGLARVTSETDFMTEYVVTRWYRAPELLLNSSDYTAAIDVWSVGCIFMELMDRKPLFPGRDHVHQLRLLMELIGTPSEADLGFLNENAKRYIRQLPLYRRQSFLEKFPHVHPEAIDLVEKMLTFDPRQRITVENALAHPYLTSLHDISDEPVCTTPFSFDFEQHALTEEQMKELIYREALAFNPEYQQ

Row | SMILES | IC50 [1] [µM] | GI50 [2] [µM] | EC50 [3] [µM] | GI50 [4] [µM]
1 | CC(C)c1n[nH]c2c(Nc3cccc(Cl)c3)nc(NC3CCCCC3N)nc12 (stereo not shown) | 0.012 | 14 | 0.2 | 28
2 | Cc1n[nH]c2c(NCc3ccccc3)nc(NC3CCCCC3N)nc12 (stereo not shown) | 0.9 | 2.3 | 1.2 | 3.2
3 | CC(C)c1n[nH]c2c(Nc3cccc(Cl)c3)nc(NCCN)nc12 | 0.25 | 16 | 6.7 | 22
4 | CC(=O)Oc1ccccc1CNc1nc(NCCO)nc2c(C)n[nH]c12 | 3.3 | 14.5 | – | 16.2
5 | CC(=O)c1ccccc1CNc1nc(NCCO)nc2c(C)n[nH]c12 | 0.4 | 10.8 | – | 9.3
6 | Cc1n[nH]c2c(NCc3c(N)cccc3Cl)nc(NCCO)nc12 | 0.86 | 5.8 | – | 7.2
7 | Cc1n[nH]c2c(NCc3cccc(Cl)c3O)nc(NCCO)nc12 | 0.38 | 1.5 | – | 2.1
8 | COc1cccc(CNc2nc(NCCO)nc3c(C)n[nH]c23)c1O | 0.45 | 3.5 | – | 4.2
9 | Cc1cccc(CNc2nc(NCCO)nc3c(C)n[nH]c23)c1O | 0.34 | 2.8 | – | 3.1
10 | Cc1n[nH]c2c(NCc3ccccc3O)nc(NCCO)nc12 | 0.41 | 5.6 | – | 8.2
11 | Cc1n[nH]c2c(NCc3ccc(Cl)c(N)c3N)nc(NCCO)nc12 | 2.8 | 5.6 | – | 6.5
12 | COc1ccc(CNc2nc(NCCO)nc3c(C)n[nH]c23)c(O)c1O | 0.29 | 3.5 | – | 4.2
13 | Cc1n[nH]c2c(NCc3cc(O)c(Cl)cc3O)nc(NCCO)nc12 | 0.38 | 1.5 | – | 2.8
14 | COc1cc(O)c(CNc2nc(NCCO)nc3c(C)n[nH]c23)cc1O | 0.16 | 4.2 | – | 3.7
15 | COc1cc(O)c(CNc2nc(NCCO)nc3c(C)n[nH]c23)c(O)c1 | 0.09 | 2.8 | – | 4.7
16 | CC(=O)Oc1cccc(CNc2nc(NCCO)nc3c(C)n[nH]c23)c1 | 3.4 | 15.4 | – | 16.7
17 | CC(=O)c1cccc(CNc2nc(NCCO)nc3c(C)n[nH]c23)c1 | 0.9 | 13.5 | – | 14.2
18 | Cc1n[nH]c2c(Nc3ccc(Cl)c(N)c3)nc(NCCO)nc12 | 0.24 | 5.7 | – | 6.4
19 | Cc1n[nH]c2c(NCc3ccc(Cl)c(N)c3)nc(NCCO)nc12 | 1.8 | 12.4 | – | 13.5
20 | Cc1n[nH]c2c(Nc3ccc(N)c(Cl)c3)nc(NCCO)nc12 | 0.25 | 16.2 | – | 17.5
21 | Cc1n[nH]c2c(NCc3cccc(O)c3)nc(NCCO)nc12 | 0.84 | 9.4 | – | 10.2
22 | Cc1n[nH]c2c(Nc3ccc(Br)cc3)nc(NCCO)nc12 | 0.15 | 8.5 | – | 8.6
23 | Cc1n[nH]c2c(Nc3ccc(Cl)cc3)nc(NCCO)nc12 | 0.18 | 7.6 | – | 8.4
24 | Cc1n[nH]c2c(N(C)Cc3ccc(O)c(O)c3)nc(NCCO)nc12 | 1.95 | 10.3 | – | 11.5
25 | CC(C)c1n[nH]c2c(NCc3ccccc3)nc(NCCO)nc12 | 2.3 | 25 | 27 | 37
26 | CC(C)c1n[nH]c2c(Nc3cccc(Cl)c3)nc(NCCCN)nc12 | 0.08 | 15 | 4.5 | 18

Row | SMILES | IC50 [1] [µM] | GI50 [2] [µM] | EC50 [3] [µM] | GI50 [4] [µM]
27 | CC(C)c1n[nH]c2c(NCc3ccccc3)nc(NCCCN)nc12 | – | 24 | 9.8 | 28
28 | Cc1n[nH]c2c(NCc3ccccc3)nc(NCCCN)nc12 | 1.4 | 32 | 12.4 | 38
29 | CC(C)c1n[nH]c2c(Nc3cccc(Cl)c3)nc(NCCCO)nc12 | 0.2 | 15 | 12 | 33
30 | CC(C)c1n[nH]c2c(NCc3ccccc3)nc(NCCCO)nc12 | 0.8 | 21 | 21 | 32
31 | Cc1n[nH]c2c(NCc3ccccc3)nc(NC3CCC(N)CC3)nc12 (stereo not shown) | 0.6 | 1.7 | 1.5 | 2.5
32 | CC(C)c1n[nH]c2c(Nc3cccc(Cl)c3)nc(N(CCO)CCO)nc12 | 0.19 | 21 | 7 | 34
33 | CC(C)c1n[nH]c2c(NCc3ccccc3)nc(N[C@@H](CO)C(C)C)nc12 | – | 2.2 | 6.5 | 2.3
34 | CC[C@H](CO)Nc1nc(NCc2ccccc2OC(C)=O)c2[nH]nc(C(C)C)c2n1 | 0.2 | 13.8 | – | 19.3
35 | CC[C@H](CO)Nc1nc(NCc2ccccc2C(C)=O)c2[nH]nc(C(C)C)c2n1 | 0.015 | 11.9 | – | 16.3
36 | CC[C@H](CO)Nc1nc(NCc2cccc(Cl)c2O)c2[nH]nc(C(C)C)c2n1 | 0.012 | 1.2 | – | 2.4
37 | CC[C@H](CO)Nc1nc(NCc2cccc(OC)c2O)c2[nH]nc(C(C)C)c2n1 | 0.012 | 3.1 | – | 6.2
38 | CC[C@H](CO)Nc1nc(NCc2cccc(C)c2O)c2[nH]nc(C(C)C)c2n1 | 0.014 | 1.9 | – | 2.1
39 | CC[C@H](CO)Nc1nc(NCc2ccccc2O)c2[nH]nc(C(C)C)c2n1 | 0.012 | 7.8 | – | 9.3
40 | CC[C@H](CO)Nc1nc(NCc2ccc(Cl)c(O)c2O)c2[nH]nc(C(C)C)c2n1 | 0.011 | 3.1 | – | 5.6
41 | CC[C@H](CO)Nc1nc(NCc2ccc(OC)c(O)c2O)c2[nH]nc(C(C)C)c2n1 | 0.005 | 4.7 | – | 6.2
42 | CC[C@H](CO)Nc1nc(NCc2cc(O)c(Cl)cc2O)c2[nH]nc(C(C)C)c2n1 | 0.015 | 2.5 | – | 4.8
43 | CC[C@H](CO)Nc1nc(NCc2cccc(OC(C)=O)c2)c2[nH]nc(C(C)C)c2n1 | 0.4 | 18.5 | – | 23.7
44 | CC[C@H](CO)Nc1nc(NCc2cccc(C(C)=O)c2)c2[nH]nc(C(C)C)c2n1 | 0.04 | 11.5 | – | 19.1
45 | CC[C@H](CO)Nc1nc(Nc2ccc(Cl)c(N)c2)c2[nH]nc(C(C)C)c2n1 | 0.013 | 4.7 | – | 7.5
46 | CC[C@H](CO)Nc1nc(Nc2ccc(O)c(C(=O)O)c2)c2[nH]nc(C(C)C)c2n1 | 0.03 | 18.4 | – | 25.8
47 | CC[C@H](CO)Nc1nc(Nc2cc(N)cc(Cl)c2)c2[nH]nc(C(C)C)c2n1 | 0.02 | 9.4 | – | 16.5
48 | CC[C@H](CO)Nc1nc(NCc2cccc(O)c2)c2[nH]nc(C(C)C)c2n1 | 0.04 | 10.5 | – | 12.4
49 | CC[C@H](CO)Nc1nc(NCc2ccc(O)c(O)c2)c2[nH]nc(C(C)C)c2n1 | 1.1 | 9.2 | – | 15.7
50 | CC[C@H](CO)Nc1nc(Nc2ccccc2)c2[nH]nc(C(C)C)c2n1 | 0.11 | 13.2 | – | 18.4
51 | Cc1n[nH]c2c(Nc3ccccc3)nc(NCCO)nc12 [2-hydroxyethylamino / anilino / methyl] | 2.5 | 10.2 | – | 12.4
